Laboratory results reported in ChEMBL document CHEMBL3301562, “MMV Box screening against Plasmodium falciparum protein kinases and aminoacyl tRNA synthetases”.

Key:
Type in all cases: functional
[1] = molecular target: T1, Cdk-related protein kinase 6 (Plasmodium falciparum, UniProt O77239); assay: Final concentrations were 1.5 uM ATP, 5 mM MnCl2, and 15 ug/ml PK6 in a buffer of 100 mM Tris-HCl (pH 7.5). 50 ug/mL MBP was provided as the substrate; 10 uM staurosporine was used as a control inhibitor. Incubation time was 3 hours and 40 minutes.The catalytic activity of each kinase was considered proportional to ATP consumed, as determined from measurements of residual [ATP] with the luciferase-based reagent Kinase-Glo (Promega) following incubation. Luminescence (proportional to residual [ATP]) was measured on the plate readers FLx800 (BioTek Instruments, Winooski, VT, USA) and MicroBeta2.
T1 sequence (O77239 whole entry): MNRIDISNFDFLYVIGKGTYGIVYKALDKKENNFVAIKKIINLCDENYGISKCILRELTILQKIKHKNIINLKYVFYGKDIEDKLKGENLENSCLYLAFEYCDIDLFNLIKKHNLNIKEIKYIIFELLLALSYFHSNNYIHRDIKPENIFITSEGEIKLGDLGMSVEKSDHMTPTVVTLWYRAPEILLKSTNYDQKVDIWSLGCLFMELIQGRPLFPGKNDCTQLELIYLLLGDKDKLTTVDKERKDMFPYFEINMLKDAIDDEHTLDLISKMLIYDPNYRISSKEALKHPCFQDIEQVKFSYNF

[2] = molecular target: T2, Putative uncharacterized protein pk7 (Plasmodium falciparum, UniProt O96214); assay: Final concentrations were 1 uM ATP, 2 mM DTT, 20 mM MgCl2, 2 mM MnCl2, 0.01% BSA, and 6 ug/ml PK7, in a buffer of 20 mM Tris-HCl (pH 7.5). The enzyme itself was the only substrate present (since autophosphorylation occurs); 100 uM 1NA-PP1 was used as a control inhibitor. Incubation time was 3 hours.
T2 sequence (O96214 whole entry): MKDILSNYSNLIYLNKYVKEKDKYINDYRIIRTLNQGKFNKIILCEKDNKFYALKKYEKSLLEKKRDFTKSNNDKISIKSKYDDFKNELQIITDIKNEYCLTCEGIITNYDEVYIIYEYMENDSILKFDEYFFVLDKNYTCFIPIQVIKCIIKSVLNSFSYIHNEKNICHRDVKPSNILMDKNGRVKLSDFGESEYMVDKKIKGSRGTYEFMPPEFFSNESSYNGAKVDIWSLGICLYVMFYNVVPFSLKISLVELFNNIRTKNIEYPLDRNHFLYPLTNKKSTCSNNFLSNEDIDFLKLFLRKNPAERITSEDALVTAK

[3] = molecular target: T3, Mitogen-activated protein kinase (Plasmodium falciparum, UniProt Q25917); assay: Final concentrations were 1 uM ATP, 0.5 mM DTT, 1 mM MgCl2, 0.5 mg/mL BSA, and 10 ug/ml MAP2 in a buffer of 50 mM HEPES (pH 7.0). 0.5 mg/mL histone III-S served as the substrate (13); 100 uM AMP-PNP, an ATP analog, was used as a control inhibitor. Incubation time was 4 hours.
T3 sequence (Q25917 whole entry): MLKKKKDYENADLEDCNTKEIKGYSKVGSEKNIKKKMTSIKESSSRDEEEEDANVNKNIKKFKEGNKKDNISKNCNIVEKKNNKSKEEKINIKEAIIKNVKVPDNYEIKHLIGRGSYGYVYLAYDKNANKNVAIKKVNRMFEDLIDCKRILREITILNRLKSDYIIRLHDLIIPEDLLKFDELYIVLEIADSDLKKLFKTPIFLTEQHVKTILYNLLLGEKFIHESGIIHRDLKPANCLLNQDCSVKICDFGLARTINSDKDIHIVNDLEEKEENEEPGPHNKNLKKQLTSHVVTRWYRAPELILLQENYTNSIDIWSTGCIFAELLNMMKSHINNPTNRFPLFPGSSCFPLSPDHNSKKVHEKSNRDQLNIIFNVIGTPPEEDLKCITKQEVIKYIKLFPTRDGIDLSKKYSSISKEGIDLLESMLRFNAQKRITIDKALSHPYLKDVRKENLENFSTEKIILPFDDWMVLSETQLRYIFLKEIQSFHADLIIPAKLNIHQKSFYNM

[4] = molecular target: Calcium-dependent protein kinase 1 (Plasmodium falciparum, UniProt P62344); assay: MMV: CDPK1 Protein kinase inhibition assay using recombinant PfCDPK1, syntide 2 peptide substrate, ATP and KinaseGlo to measure % inhibition at 1 uM MMV box compound.
[5] = molecular target: T4, Calcium-dependent protein kinase 4 (Plasmodium falciparum (isolate 3D7), UniProt Q8IBS5); assay: MMV: CDPK4 Protein kinase inhibition assay using recombinant PfCDPK4, syntide2 peptide substrate, ATP and KinaseGlo to measure % inhibition at 1 uM MMV box compound.
T4 sequence (Q8IBS5 whole entry): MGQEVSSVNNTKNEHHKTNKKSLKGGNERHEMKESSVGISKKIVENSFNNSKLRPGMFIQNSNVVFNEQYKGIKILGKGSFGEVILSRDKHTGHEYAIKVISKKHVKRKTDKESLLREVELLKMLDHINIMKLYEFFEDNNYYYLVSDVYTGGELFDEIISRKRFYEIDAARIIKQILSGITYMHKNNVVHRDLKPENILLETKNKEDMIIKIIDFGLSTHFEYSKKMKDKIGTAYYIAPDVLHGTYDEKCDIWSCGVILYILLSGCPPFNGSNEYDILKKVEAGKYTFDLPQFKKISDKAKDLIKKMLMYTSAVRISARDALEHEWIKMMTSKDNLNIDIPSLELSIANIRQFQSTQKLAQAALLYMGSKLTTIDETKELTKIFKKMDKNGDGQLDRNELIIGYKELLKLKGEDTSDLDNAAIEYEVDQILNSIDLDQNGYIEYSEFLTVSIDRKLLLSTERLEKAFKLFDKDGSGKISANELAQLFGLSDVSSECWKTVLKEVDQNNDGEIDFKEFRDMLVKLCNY

Proline--tRNA ligase = molecular target: T5, Proline--tRNA ligase (Plasmodium falciparum (isolate 3D7), UniProt Q8I5R7); assay: MMV: ProRS recombinant Plasmodium falciparum Prolyl-tRNA-synthetase, assay with yeast tRNA, ATP, and proline and 3 uM MMV malaria box compound, assay read out with kinase glo as % inhibition.
T5 sequence (Q8I5R7 whole entry): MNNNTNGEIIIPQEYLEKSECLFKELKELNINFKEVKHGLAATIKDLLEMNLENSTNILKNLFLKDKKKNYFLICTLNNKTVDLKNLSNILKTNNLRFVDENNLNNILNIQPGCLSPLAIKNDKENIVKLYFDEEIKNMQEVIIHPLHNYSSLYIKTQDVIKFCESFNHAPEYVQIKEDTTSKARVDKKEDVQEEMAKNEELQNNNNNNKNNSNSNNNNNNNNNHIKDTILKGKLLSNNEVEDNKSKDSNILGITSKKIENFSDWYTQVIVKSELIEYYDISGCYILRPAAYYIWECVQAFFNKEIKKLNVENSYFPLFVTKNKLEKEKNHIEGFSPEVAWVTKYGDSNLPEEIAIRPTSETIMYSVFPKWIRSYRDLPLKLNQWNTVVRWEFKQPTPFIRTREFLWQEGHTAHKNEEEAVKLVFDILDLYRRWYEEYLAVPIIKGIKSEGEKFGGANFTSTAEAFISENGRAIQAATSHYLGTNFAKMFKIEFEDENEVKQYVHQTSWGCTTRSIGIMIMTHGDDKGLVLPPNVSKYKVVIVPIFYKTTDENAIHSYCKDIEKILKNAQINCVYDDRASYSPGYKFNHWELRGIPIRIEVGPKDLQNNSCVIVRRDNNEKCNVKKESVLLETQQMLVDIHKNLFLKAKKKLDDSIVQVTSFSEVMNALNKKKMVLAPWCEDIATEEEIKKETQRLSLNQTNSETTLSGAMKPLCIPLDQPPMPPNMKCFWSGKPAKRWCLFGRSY

Lysine--tRNA ligase = Lysine--tRNA ligase (Plasmodium falciparum (isolate 3D7), UniProt Q8IDJ8); assay: MMV: KRS recombinant Plasmodium falciparum Lysyl-tRNA-synthetase, assay with yeast tRNA, ATP, and lysine and 3 uM MMV malaria box compound, assay read out with kinase glo as % inhibition.
Lysine--tRNA ligase, sequence (Q8IDJ8 whole entry): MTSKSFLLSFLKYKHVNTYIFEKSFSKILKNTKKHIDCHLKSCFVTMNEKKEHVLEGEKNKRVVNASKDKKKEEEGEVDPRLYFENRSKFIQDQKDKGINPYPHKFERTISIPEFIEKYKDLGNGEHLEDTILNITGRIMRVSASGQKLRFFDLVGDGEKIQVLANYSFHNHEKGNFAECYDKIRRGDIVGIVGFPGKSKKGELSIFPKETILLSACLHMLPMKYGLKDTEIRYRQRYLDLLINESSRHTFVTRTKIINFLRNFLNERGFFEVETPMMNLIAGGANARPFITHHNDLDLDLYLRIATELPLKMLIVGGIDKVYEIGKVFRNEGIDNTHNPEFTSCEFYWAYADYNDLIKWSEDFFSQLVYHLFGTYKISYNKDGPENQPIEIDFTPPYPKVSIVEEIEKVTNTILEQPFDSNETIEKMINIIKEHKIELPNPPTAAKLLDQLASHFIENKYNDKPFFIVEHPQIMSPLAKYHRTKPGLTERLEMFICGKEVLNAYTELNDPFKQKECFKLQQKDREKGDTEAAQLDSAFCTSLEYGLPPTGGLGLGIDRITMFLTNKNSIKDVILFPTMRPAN

Calcium-dependent protein kinase 1, sequence (P62344 whole entry): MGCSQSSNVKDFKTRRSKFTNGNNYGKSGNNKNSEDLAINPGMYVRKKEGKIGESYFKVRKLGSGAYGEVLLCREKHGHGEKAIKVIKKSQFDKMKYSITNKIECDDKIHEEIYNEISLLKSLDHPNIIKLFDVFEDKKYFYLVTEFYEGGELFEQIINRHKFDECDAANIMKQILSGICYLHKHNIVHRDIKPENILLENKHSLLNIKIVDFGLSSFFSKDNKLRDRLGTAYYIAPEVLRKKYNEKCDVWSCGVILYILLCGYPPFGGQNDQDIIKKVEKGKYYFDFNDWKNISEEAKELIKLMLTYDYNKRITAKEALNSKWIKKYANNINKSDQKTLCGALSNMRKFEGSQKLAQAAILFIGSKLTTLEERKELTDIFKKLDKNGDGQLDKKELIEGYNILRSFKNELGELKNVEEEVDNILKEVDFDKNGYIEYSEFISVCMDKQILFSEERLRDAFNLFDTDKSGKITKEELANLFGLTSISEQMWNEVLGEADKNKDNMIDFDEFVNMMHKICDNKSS

SMILES | IC50 [1] [nM] | IC50 [2] [nM] | IC50 [3] [nM] | IC50 [4] [nM] | IC50 [5] [nM] | IC50 (Proline--tRNA ligase) [nM] | IC50 (Lysine--tRNA ligase) [nM]
O=C(Nc1ccccc1O)c1ccc(Oc2cccc(C(=O)Nc3ccccc3O)c2)cc1 | > 1000 | > 1000 | > 1000 | > 1000 | > 1000 | > 2500 | > 2500
COc1cccc(Nc2nc(NCCO)c3ccccc3n2)c1 | > 1000 | > 1000 | > 1000 | > 1000 | > 1000 | > 2500 | > 2500
COc1ccc(C(=O)Nc2ccc3nc(N4CCCCC4)cc(C)c3c2)cc1OC | > 1000 | > 1000 | > 1000 | > 1000 | > 1000 | > 2500 | > 2500
Cn1c(=O)c2cc(C(=O)NCCCN3CCCCCC3)sc2c2ccccc21 | > 1000 | > 1000 | > 1000 | > 1000 | > 1000 | > 2500 | > 2500
COc1ccc(CCN2CCC(CN(C)Cc3cnn(-c4ccccc4)c3)CC2)cc1 | > 1000 | > 1000 | > 1000 | > 1000 | > 1000 | > 2500 | > 2500
O=C(NC(c1ccccc1)c1ccc2cccnc2c1O)c1ccccc1 (configuration not stated) | > 1000 | > 1000 | > 1000 | > 1000 | > 1000 | > 2500 | > 2500
CCOc1cc(Cl)c(C(C)NC(=O)c2cccc(OC)c2)cc1OCC (configuration not stated) | > 1000 | > 1000 | > 1000 | > 1000 | > 1000 | > 2500 | > 2500
Cc1ccc(Cl)cc1N1CCN(CCCNC(=O)C2CCN(c3nc4ccccc4[nH]3)CC2)CC1 | > 1000 | > 1000 | > 1000 | > 1000 | > 1000 | > 2500 | > 2500
COc1ccc(CNC2CCN(c3ccc(NC(=O)c4cccc(Cl)c4)cc3)CC2)cc1OC | > 1000 | > 1000 | > 1000 | > 1000 | > 1000 | > 2500 | > 2500
CC(NCc1ccccc1)c1cc(Cl)ccc1O (configuration not stated) | > 1000 | > 1000 | > 1000 | > 1000 | > 1000 | > 2500 | > 2500
O=C(Nc1ccc(CN2CCOCC2)cc1)c1ccc(-c2ccc(Br)cc2)o1 | > 1000 | > 1000 | > 1000 | > 1000 | > 1000 | > 2500 | > 2500
CCN(CC)c1ccc(NC(=O)c2cccs2)cc1 | > 1000 | > 1000 | > 1000 | > 1000 | > 1000 | > 2500 | > 2500
COc1cccc(-c2nn(C)c3sc(C(=O)NCCN4CCN(c5ccccc5F)CC4)cc23)c1 | > 1000 | > 1000 | > 1000 | > 1000 | > 1000 | > 2500 | > 2500
Cc1ccc(CN2CCC(C(=O)Nc3ccc(-c4cc5ccccc5[nH]4)cc3)CC2)o1 | > 1000 | > 1000 | > 1000 | > 1000 | > 1000 | > 2500 | > 2500
O=C(Nc1ccsc1C(=O)NC1CCCCC1)c1ccc(F)cc1 | > 1000 | > 1000 | > 1000 | > 1000 | > 1000 | > 2500 | > 2500
CCN(CC)c1cc(C)c2cc(NC(=O)c3cccc(OC)c3)ccc2n1 | > 1000 | > 1000 | > 1000 | > 1000 | > 1000 | > 2500 | > 2500
CCOc1ccc(-c2nc(NC(=O)c3cccc(S(C)(=O)=O)c3)sc2C)cc1 | > 1000 | > 1000 | > 1000 | > 1000 | > 1000 | > 2500 | > 2500
CCCc1c(C)nc2ccccc2c1O | > 1000 | > 1000 | > 1000 | > 1000 | > 1000 | > 2500 | > 2500
CCOc1c(Cl)cc(CNC(C)C(O)c2ccccc2)cc1OC (configuration not stated) | > 1000 | > 1000 | > 1000 | > 1000 | > 1000 | > 2500 | > 2500
CN1c2ccccc2N(C)C1c1ccc2c(c1)OCO2 | > 1000 | > 1000 | > 1000 | > 1000 | > 1000 | > 2500 | > 2500
C=C(C)CCC(C)N1CCC(N2CCC(C(=O)NCCc3ccccc3)CC2)CC1 (configuration not stated) | > 1000 | > 1000 | > 1000 | > 1000 | > 1000 | > 2500 | > 2500
